{
  "source": "patent US10093683B2",
  "about": "“Factor XIa inhibitors” (Merck Sharp & Dohme Corp., priority 2014, dated 2018)",
  "note": "Where a name gives a salt, the structure may show the parent alone.",
  "data": [
    {"biological_target": "human Factor XIa (Homo sapiens (Human), UniProt P03951)", "sequence (P03951 388-625)": "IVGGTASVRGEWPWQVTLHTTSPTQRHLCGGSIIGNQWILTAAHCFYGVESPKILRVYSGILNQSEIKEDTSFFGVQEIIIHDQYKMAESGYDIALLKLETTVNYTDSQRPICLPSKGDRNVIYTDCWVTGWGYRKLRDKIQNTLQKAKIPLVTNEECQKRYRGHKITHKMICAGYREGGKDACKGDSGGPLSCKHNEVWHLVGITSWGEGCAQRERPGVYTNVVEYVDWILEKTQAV", "sequence (P03951 19-387 partner)": "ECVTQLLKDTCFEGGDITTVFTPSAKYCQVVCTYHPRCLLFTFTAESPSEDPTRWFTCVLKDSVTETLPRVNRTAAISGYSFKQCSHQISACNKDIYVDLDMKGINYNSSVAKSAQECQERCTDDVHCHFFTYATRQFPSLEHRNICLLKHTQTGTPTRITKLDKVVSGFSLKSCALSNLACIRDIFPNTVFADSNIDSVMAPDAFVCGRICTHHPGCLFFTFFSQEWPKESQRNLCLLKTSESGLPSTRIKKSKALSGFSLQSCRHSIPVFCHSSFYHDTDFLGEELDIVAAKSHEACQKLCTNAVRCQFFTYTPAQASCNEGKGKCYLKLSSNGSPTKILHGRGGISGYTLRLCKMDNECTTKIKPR", "test": "Factor XIa Assay", "type": "biochemical", "conditions": "purified human Factor XIa 40 pM, Z-Gly-Pro-Arg-AFC 100 μM, pH 7.4; read-out: FXIa Ki", "in_short": "(§1)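 Purified human FXIa (40 pM final) hydrolysing fluorogenic Z-Gly-Pro-Arg-AFC (100 μM) in 50 mM HEPES pH 7.4, 150 mM NaCl, 5 mM CaCl2, 0.1% PEG 8000, at room temperature or 37° C. Initial velocities measured after enzyme–inhibitor equilibration; Ki from Vo/Vi versus [I], assuming competitive inhibition.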", "units": {"Ki": "µM"}, "values": [
      {"compound": "CO[C@@H]1C[C@@H](C(=O)N2CC[C@@]3(C2)OC(=O)Nc2ccc(Cl)cc23)N(C(=O)c2ccc3nc(N)sc3c2)C1", "note": "[Example 290, (R)-1′-((2S,4R)-1-(2-aminobenzo[d]thiazole-6-carbonyl)-4-methoxypyrrolidine-2-carbonyl)-6-chlorospiro[benzo[d][1,3]oxazine-4,3′-pyrrolidin]-2(1H)-one]", "Ki": 2.4},
      {"compound": "O=C1Nc2ccc(Cl)c(F)c2[C@@]2(CCCN(C(=O)[C@H](Cc3cncnc3)NC(=O)c3ccc4[nH]c(=O)ccc4c3)C2)O1", "note": "[Example 113, N-((S)-1-((R)-6-chloro-5-fluoro-2-oxo-1,2-dihydrospiro[benzo[d][1,3]oxazine-4,3′-piperidin]-1′-yl)-1-oxo-3-(pyrimidin-5-yl)propan-2-yl)-2-oxo-1,2-dihydroquinoline-6-carboxamide]", "Ki": 0.0156},
      {"compound": "COC(=O)Nc1ccc(C(=O)N[C@@H](CC(=O)N2CC(F)(F)C2)C(=O)N2CCC[C@@]3(C2)OC(=O)Nc2ccc(Cl)cc23)cc1", "note": "[Example 85, methyl (4-(((S)-1-((R)-6-chloro-2-oxo-1,2-dihydrospiro[benzo[d][1,3]oxazine-4,3′-piperidin]-1′-yl)-4-(3,3-difluoroazetidin-1-yl)-1,4-dioxobutan-2-yl)carbamoyl)phenyl)carbamate]", "Ki": 0.0333},
      {"compound": "N#Cc1ccc(S(=O)(=O)N[C@@H](Cc2ccccc2)C(=O)N2CCC3(C2)OC(=O)Nc2ccc(Cl)cc23)cc1", "note": "(stereo partly drawn) [Example 280, N-((2S)-1-(6-chloro-2-oxo-1,2-dihydrospiro[benzo[d][1,3]oxazine-4,3′-pyrrolidin]-1′-yl)-1-oxo-3-phenylpropan-2-yl)-4-cyanobenzenesulfonamide]", "Ki": 5},
      {"compound": "CNC(=O)Nc1ccc(S(=O)(=O)N[C@@H](Cc2ccccc2)C(=O)N2CCC3(C2)OC(=O)Nc2ccc(Cl)cc23)c(Cl)c1", "note": "(stereo partly drawn) [Example 281, 2-chloro-N-((2S)-1-(6-chloro-2-oxo-1,2-dihydrospiro[benzo[d][1,3]oxazine-4,3′-pyrrolidin]-1′-yl)-1-oxo-3-phenylpropan-2-yl)-4-(3-methylureido)benzenesulfonamide]", "Ki": "≥ 5"},
      {"compound": "COC(=O)Nc1ccc(C(=O)N[C@@H](CC2CCC2)C(=O)N2CCC[C@@]3(C2)OC(=O)Nc2ccc(Cl)cc23)cc1", "note": "[Example 71, methyl (4-(((S)-1-((R)-6-chloro-2-oxo-1,2-dihydrospiro[benzo[d][1,3]oxazine-4,3′-piperidin]-1′-yl)-3-cyclobutyl-1-oxopropan-2-yl)carbamoyl)phenyl)carbamate]", "Ki": 0.0509},
      {"compound": "COC(=O)Nc1ccc(-c2c[nH]c([C@@H](Cc3ccccc3)C(=O)N3CC[C@@]4(C3)OC(=O)Nc3ccc(Cl)cc34)n2)cc1", "note": "[Example 122a, methyl (4-(2-((R)-1-((R)-6-chloro-2-oxo-1,2-dihydrospiro[benzo[d][1,3]oxazine-4,3′-pyrrolidin]-1′-yl)-1-oxo-3-phenylpropan-2-yl)-1H-imidazol-4-yl)phenyl)carbamate]", "Ki": 0.0336},
      {"compound": "O=C1Nc2ccc(Cl)cc2[C@@]2(CCCN(C(=O)[C@H](Cc3ccccc3)Nc3ccc(-c4cccc(C(=O)O)c4)cn3)C2)O1", "note": "[Example 297, 3-(6-(((S)-1-((R)-6-chloro-2-oxo-1,2-dihydrospiro[benzo[d][1,3]oxazine-4,3′-piperidin]-1′-yl)-1-oxo-3-phenylpropan-2-yl)amino)pyridin-3-yl)benzoic acid]", "Ki": 10},
      {"compound": "O=C1Nc2ccc(Cl)cc2[C@@]2(CCN(C(=O)[C@H](Cc3ccccc3)C(=O)Nc3ccc(C(=O)O)cc3)C2)O1", "note": "[Example 121c, 4-((R)-2-benzyl-3-((R)-6-chloro-2-oxo-1,2-dihydrospiro[benzo[d][1,3]oxazine-4,3′-pyrrolidin]-1′-yl)-3-oxopropanamido)benzoic acid]", "Ki": 0.439},
      {"compound": "COC(=O)Nc1ccc(C(=O)N[C@@H](Cc2ccccc2)C(=O)N2CC[C@@]3(C2)OC(=O)Nc2ncc(Cl)cc23)cc1", "note": "[Example 1b, methyl (4-(((S)-1-((R)-6-chloro-2-oxo-1,2-dihydrospiro[pyrido[2,3-d][1,3]oxazine-4,3′-pyrrolidin]-1′-yl)-1-oxo-3-phenylpropan-2-yl)carbamoyl)phenyl)carbamate]", "Ki": 0.246},
      {"compound": "O=C1Nc2ccc(Cl)cc2[C@@]2(CCCN(C(=O)C(CC3CC3)Nc3n[nH]c4cc(F)ccc34)C2)O1", "note": "(stereo partly drawn) [Example 135, (4R)-6-chloro-1′-(3-cyclopropyl-2-((6-fluoro-1H-indazol-3-yl)amino)propanoyl)spiro[benzo[d][1,3]oxazine-4,3′-piperidin]-2(1H)-one]", "Ki": "> 8.75"},
      {"compound": "COC(=O)Nc1ccc(-c2c[nH]c([C@@H](Cc3ccccc3)C(=O)N3CC[C@]4(C3)OC(=O)Nc3ccc(Cl)cc34)n2)cc1", "note": "[Example 122c, methyl (4-(2-((R)-1-((S)-6-chloro-2-oxo-1,2-dihydrospiro[benzo[d][1,3]oxazine-4,3′-pyrrolidin]-1′-yl)-1-oxo-3-phenylpropan-2-yl)-1H-imidazol-4-yl)phenyl)carbamate]", "Ki": 5},
      {"compound": "O=C1Nc2ccc(Cl)c(F)c2[C@@]2(CCCN(C(=O)C(Cc3ccccc3)c3nc(-c4csc(C(=O)O)c4F)c[nH]3)C2)O1", "note": "(stereo partly drawn) [Example 124, 4-(2-(1-((R)-6-chloro-5-fluoro-2-oxo-1,2-dihydrospiro[benzo[d][1,3]oxazine-4,3′-piperidin]-1′-yl)-1-oxo-3-phenylpropan-2-yl)-1H-imidazol-4-yl)-3-fluorothiophene-2-carboxylic acid]", "Ki": 0.209},
      {"compound": "O=C1Nc2ccc(Cl)cc2[C@@]2(CCCN(C(=O)[C@H](Cc3ccccc3)Nc3ccc(-c4ccc(O)nc4)cn3)C2)O1", "note": "[Example 295, (R)-6-chloro-1′-((6′-hydroxy-[3,3′-bipyridin]-6-yl)-L-phenylalanyl)spiro[benzo[d][1,3]oxazine-4,3′-piperidin]-2(1H)-one]", "Ki": 10},
      {"compound": "COC(=O)Nc1ccc(C(=O)NC(C[C@@H]2CCCO2)C(=O)N2CCC[C@@]3(C2)OC(=O)Nc2ccc(Cl)c(F)c23)cc1", "note": "(single isomer, unassigned) [Example 116B]", "Ki": 0.00421},
      {"compound": "COC(=O)Nc1ccc(C(=O)N[C@H](CC(=O)N2CCC3(C2)OC(=O)Nc2ccc(Cl)cc23)Cc2ccccc2)cc1", "note": "(stereo partly drawn) [Example 49, methyl (4-(((2S)-4-(6-chloro-2-oxo-1,2-dihydrospiro[benzo[d][1,3]oxazine-4,3′-pyrrolidin]-1′-yl)-4-oxo-1-phenylbutan-2-yl)carbamoyl)phenyl)carbamate]", "Ki": 0.362}
    ]},
    {"biological_target": "human Factor XIa (Homo sapiens (Human), UniProt P03951)", "test": "Factor XIa Assay", "type": "biochemical", "conditions": "read-out: FXIa Ki", "in_short": "as §1", "units": {"Ki": "µM"}, "values": [
      {"compound": "Nc1nc2cc(C(=O)N[C@@H](Cc3ccccc3)C(=O)N3CCC4(C3)OC(=O)Nc3ccc(Cl)cc34)ccc2[nH]1", "note": "(stereo partly shown) [Example 180]", "Ki": 0.0567},
      {"compound": "O=C1Nc2ccc(Cl)cc2C2(CCN(C(=O)[C@H](Cc3ccccc3)NC(=O)c3ccc(C(=O)O)cc3)C2)O1", "note": "(single isomer, unassigned) [Example 140b]", "Ki": 5},
      {"compound": "NS(=O)(=O)c1ccc(C(=O)N[C@@H](Cc2ccccc2)C(=O)N2CCC3(C2)OC(=O)Nc2ccc(Cl)cc23)cc1", "note": "(stereo partly drawn) [Example 139, N-((2S)-1-(6-chloro-2-oxo-1,2-dihydrospiro[benzo[d][1,3]oxazine-4,3′-pyrrolidin]-1′-yl)-1-oxo-3-phenylpropan-2-yl)-4-sulfamoylbenzamide]", "Ki": 0.928},
      {"compound": "N#Cc1ccc(C(=O)N[C@@H](Cc2ccccc2)C(=O)N2CCC3(C2)OC(=O)Nc2ccc(Cl)cc23)cc1", "note": "(stereo partly drawn) [Example 150, N-((2S)-1-(6-chloro-2-oxo-1,2-dihydrospiro[benzo[d][1,3]oxazine-4,3′-pyrrolidin]-1′-yl)-1-oxo-3-phenylpropan-2-yl)-4-cyanobenzamide]", "Ki": 0.43},
      {"compound": "O=C1Nc2ccc(Cl)cc2[C@@]2(CCCN(C(=O)[C@H](CC3CC3)NC(=O)c3cnc4c(c3)CCN4)C2)O1", "note": "[Example 207]", "Ki": 8.75},
      {"compound": "O=C1Nc2ccc(Cl)c(F)c2[C@@]2(CCCN(C(=O)[C@H](Cc3ccccc3)NC(=O)c3ccc(-c4nc(=O)o[nH]4)cc3)C2)O1", "note": "[Example 232, N-((S)-1-((R)-6-chloro-5-fluoro-2-oxo-1,2-dihydrospiro[benzo[d][1,3]oxazine-4,3′-piperidin]-1′-yl)-1-oxo-3-phenylpropan-2-yl)-4-(5-oxo-2,5-dihydro-1,2,4-oxadiazol-3-yl)benzamide]", "Ki": 0.258},
      {"compound": "Cc1nc(C(=O)N[C@@H](Cc2ccccc2)C(=O)N2CCC3(C2)OC(=O)Nc2ccc(Cl)cc23)co1", "note": "(stereo partly shown) [Example 146]", "Ki": 5},
      {"compound": "Nc1n[nH]c2ccc(C(=O)N[C@@H](Cc3ccccc3)C(=O)N3CCC4(C3)OC(=O)Nc3ccc(Cl)cc34)cc12", "note": "(stereo partly shown) [Example 185]", "Ki": 0.096},
      {"compound": "COC(=O)Nc1ccc(C(=O)N[C@@H](Cc2ccccc2)C(=O)N2CCC[C@@]3(C2)OC(=O)Nc2ccc(Cl)c(F)c23)nn1", "note": "[Example 242]", "Ki": 0.177},
      {"compound": "O=C1Nc2ccc(Cl)cc2C2(CCN(C(=O)[C@H](Cc3ccccc3)NC(=O)c3ccc4c(c3)C(=O)NC4)C2)O1", "note": "(stereo partly shown) [Example 172]", "Ki": 0.328},
      {"compound": "COC(=O)Nc1ccc(CN[C@@H](Cc2ccccc2)C(=O)N2CC[C@@]3(C2)OC(=O)Nc2ccc(Cl)cc23)cc1", "note": "[Example 222, Methyl (4-((((S)-1-((R)-6-chloro-2-oxo-1,2-dihydrospiro[benzo[d][1,3]oxazine-4,3′-pyrrolidin]-1′-yl)-1-oxo-3-phenylpropan-2-yl)amino)methyl)phenyl)carbamate]", "Ki": 8.75},
      {"compound": "CC(=O)Oc1cc(=O)[nH]c2ccc(C(=O)N[C@@H](Cc3ccccc3)C(=O)N3CCC[C@@]4(C3)OC(=O)Nc3ccc(Cl)c(F)c34)cc12", "note": "[Example 211]", "Ki": 0.0396},
      {"compound": "COC(=O)Nc1ccc(C(=O)N[C@@H](Cc2ccccc2)C(=O)N2CCC3(C2)OC(=O)Nc2ccc(Cl)cc23)nc1", "note": "(stereo partly shown) [Example 166]", "Ki": 0.184},
      {"compound": "O=C1Nc2ccc(Cl)cc2C2(CCN(C(=O)[C@H](Cc3ccccc3)NC(=O)c3ccc(C(=O)O)cc3)C2)O1", "note": "(single isomer, unassigned) [Example 140a]", "Ki": 1.6},
      {"compound": "O=C(Nc1ccc(C(=O)N[C@@H](Cc2ccccc2)C(=O)N2CCC3(C2)OC(=O)Nc2ccc(Cl)cc23)cc1)OCCN1CCNCC1", "note": "(stereo partly drawn) [Example 190, 2-(Piperazin-1-yl)ethyl (4-(((2S)-1-(6-chloro-2-oxo-1,2-dihydrospiro[benzo[d][1,3]oxazine-4,3′-pyrrolidin]-1′-yl)-1-oxo-3-phenylpropan-2-yl)carbamoyl)phenyl)carbamate 2 trifluoroacetic acid salt]", "Ki": 0.0767}
    ]}
  ]
}
